How the values were obtained:
Experiment in all cases: TAG hydrolase assay, humanized mouse ATGL variants
Assay type in all cases: biochemical
mouse ATGL A60V = target: T1, mouse ATGL A60V (Mus musculus, UniProt Q8BJ56, A60V); conditions: variant A60V, NG-497 (10 μM) or Atglistatin (10 μM)
T1 construct: host or cells: Expi293 cells, cell lysate
Procedure: (§1) Figure 5 Analysis of chimeric proteins comprising human and mouse ATGL. (a) Schematic view of the minimal active domain of wild-type and chimeric ATGL variants (c1–c9). Nonidentical aa are indicated in blue and red for mouse and human ATGL, respectively. ATGL variants were expressed in Expi293 cells and TAG hydrolase activity was determined in cell lysates in the presence or absence of NG-497 (10 μM) and Atglistatin (10 μM), respectively. Inhibition of ATGL variants by respective inhibitors (tick mark) and lack of inhibition (cross) is indicated at the right edge. The expression of all ATGL variants was confirmed by Western blotting analysis (Figure S6). (b) Dose-dependent inhibition of human ATGL (aa 1–288) and c1 (human aa 1–158 and mouse aa 159–288) by NG-497. (c) Dose-dependent inhibition of mouse ATGL (aa 1–288) and c2 (mouse aa 1–158 and human aa 159–288) by Ai. IC50 values are shown in the insets. Data are presented as relative inhibition of respective DMSO controls and are indicated as mean ± SD. (d) 3D homology model of the minimal active domain of mouse ATGL (M1–L254) depicted as a cartoon. Residues 1–178 are in blue, and residues 179–254 are in gray. S47 and D166 comprising the active site are represented as green sticks. T101, C106, R109, N111, and S133 are colored in orange, A60, N68, I69, T93, C97, and T146 are colored in magenta. TEXT PRINTED IN THE PICTURE: (b) NG-497: IC50 [μM] (human): 1.3±0.1; IC50 [μM] (c1): 1.3±0.1 | (b) Ai: IC50 [μM] (human): n.det.; IC50 [μM] (c1): n.det. | (c) NG-497: IC50 [μM] (mouse): n.det.; IC50 [μM] (c2): n.det. | (c) Ai: IC50 [μM] (mouse): 2.5±0.3; IC50 [μM] (c2): 2.4±0.1 […]
(§2) The region between aa 60 and 146 of human and mouse ATGL comprises 12 nonidentical aa. We generated 3D homology models for the minimal active domain of mouse ATGL to obtain more detailed insight into the topology of the relevant region (Figure 5d). Based on this model, aa T101, C106, R109, N111, and S133 locate at peripheral (loop) regions (indicated in orange, Figure 5d). […] For all other nonidentical aa (indicated in magenta, Figure 5d), we generated variants with single aa substitutions. The humanized variants A60V, N68K, T93I, and C97F were inactivated by Ai but not NG-497 (Figure 5a).
(§3) Experimental details, materials, and methods
(§4) Expression of recombinant ATGL constructs and preparation of cell lysates. Expi293 cells were cultivated in Expi293 Expression Medium (GIBCO, Thermo Fisher Scientific, Waltham, USA) at standard conditions (37°C, 5% CO2, 95% humidified atmosphere, 125 rpm). DNA constructs containing ATGL from different species and chimeric ATGL variants in pcDNA3.1(+)myc-His C Vector were obtained from BioCat GmbH (Heidelberg, Germany). Cells were transfected with ExpiFectamine293 Transfection Kit (GIBCO) in Opti-Mem reduced serum medium (GIBCO) according to the manufacturer’s instructions. After 48 h, cells were harvested by centrifugation and washed three times with PBS. Cells were disrupted in buffer A (0.25 M sucrose, 1 mM EDTA, 1 mM dithiothreitol, 20µg/ml leupeptin, 2 µg/ml antipain, 1 µg/ml pepstatin, pH 7.0) by sonication (Virsonic 475, Virtis, Gardiner, USA). Nuclei and debris were removed by centrifugation at 1,000 g and 4°C for 10 min. Protein concentrations were determined using Bio-Rad protein assay (Bio-Rad 785, Bio-Rad Laboratories, Munich, Germany) using BSA as standard.
(§5) Expression and purification of mouse CGI-58. CGI-58 was expressed and purified as described 1. In brief, the coding sequence of mouse Cgi-58 was cloned into pHis-Sumo and co-transformed with the plasmid pTf16 expressing the chaperone Tig into E. coli BL21(DE3). Cells were cultured overnight at 37°C and 180 rpm in the presence of 40 µg/ml kanamycin and 34 µg/ml chloramphenicol. Thereafter, cells were transferred into fresh LB medium, grown until OD600 of 0.6, and expression was induced by the addition of 0.5 mM IPTG. After overnight incubation at 30°C, cells were harvested at 4,500 x g and 4°C for 20 min, […]

mouse ATGL C97F = target: T2, mouse ATGL C97F (Mus musculus, UniProt Q8BJ56, C97F); conditions: variant C97F, NG-497 (10 μM) or Atglistatin (10 μM)
T2 construct: host or cells: Expi293 cells, cell lysate
Procedure: as §1, §2, §3, §4, §5

mouse ATGL N68K = target: T3, mouse ATGL N68K (Mus musculus, UniProt Q8BJ56, N68K); conditions: variant N68K, NG-497 (10 μM) or Atglistatin (10 μM)
T3 construct: host or cells: Expi293 cells, cell lysate
Procedure: as §1, §2, §3, §4, §5

mouse ATGL T93I = target: T4, mouse ATGL T93I (Mus musculus, UniProt Q8BJ56, T93I); conditions: variant T93I, NG-497 (10 μM) or Atglistatin (10 μM)
T4 construct: host or cells: Expi293 cells, cell lysate
Procedure: as §1, §2, §3, §4, §5

Measured: inhibition of TAG hydrolase activity

T3 sequence (Q8BJ56 whole entry N68K): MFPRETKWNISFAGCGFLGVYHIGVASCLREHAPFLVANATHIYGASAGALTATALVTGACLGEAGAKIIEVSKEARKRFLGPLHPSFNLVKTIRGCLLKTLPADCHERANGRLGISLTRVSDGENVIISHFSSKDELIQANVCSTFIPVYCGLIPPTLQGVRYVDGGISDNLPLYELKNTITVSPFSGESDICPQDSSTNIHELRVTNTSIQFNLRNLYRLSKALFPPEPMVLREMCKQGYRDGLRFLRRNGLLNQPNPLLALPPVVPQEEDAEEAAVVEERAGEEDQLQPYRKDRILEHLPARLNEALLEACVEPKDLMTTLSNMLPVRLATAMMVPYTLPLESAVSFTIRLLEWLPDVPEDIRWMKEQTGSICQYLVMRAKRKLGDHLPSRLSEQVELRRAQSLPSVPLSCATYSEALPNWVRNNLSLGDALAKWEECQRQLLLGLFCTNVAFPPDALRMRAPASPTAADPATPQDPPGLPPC
T2 sequence (Q8BJ56 whole entry C97F): as the sequence (Q8BJ56 whole entry N68K) above, with K68N, C97F counted along it
T1 sequence (Q8BJ56 whole entry A60V): as the sequence (Q8BJ56 whole entry N68K) above, with A60V, K68N counted along it
T4 sequence (Q8BJ56 whole entry T93I): as the sequence (Q8BJ56 whole entry N68K) above, with K68N, T93I counted along it

CN(C)C(=O)Nc1cccc(-c2ccc(N(C)C)cc2)c1 [Atglistatin, reference compound]
inactivated: all assays above
